Experimental data reported in ChEMBL document CHEMBL1130625, “Synthesis and antibacterial activity of novel 7-(3-substituted-3 or 4-trifluoromethyl-1-pyrrolidinyl)-8-methoxyfluoroquinolones” (1998).
Values after ≈ are worked out from the molar mass of the structure shown.

What was measured:
[1] = system: Acinetobacter calcoaceticus; assay: Compound was tested for antibacterial activity against gram negative Acinetobacter calcoaceticus No.4; assay type: functional; conditions: Acinetobacter calcoaceticus; read-out: MIC
[2] = system: Burkholderia cepacia; assay: Compound was tested for antibacterial activity against gram negative Burkholderia cepacia 23; assay type: functional; conditions: Burkholderia cepacia; read-out: MIC
[3] = system: Citrobacter freundii; assay: Compound was tested for antibacterial activity against gram negative Citrobacter freundii KP-29; assay type: functional; conditions: Citrobacter freundii; read-out: MIC
[4] = system: Citrobacter freundii; assay: Compound was tested for antibacterial activity against gram negative Citrobacter freundii No.7; assay type: functional; conditions: Citrobacter freundii; read-out: MIC
[5] = system: Enterococcus faecalis; assay: Compound was tested for antibacterial activity against gram positive Enterococcus faecalis 1373; assay type: functional; conditions: Enterococcus faecalis; read-out: MIC
[6] = system: Escherichia coli; assay: Compound was tested for antibacterial activity against gram negative Escherichia coli CSH2/RE45; assay type: functional; conditions: Escherichia coli; read-out: MIC
[7] = system: Escherichia coli; assay: Compound was tested for antibacterial activity against gram negative Escherichia coli CSH2/RK1; assay type: functional; conditions: Escherichia coli; read-out: MIC
[8] = system: Escherichia coli; assay: Compound was tested for antibacterial activity against gram negative Escherichia coli ML4707; assay type: functional; conditions: Escherichia coli; read-out: MIC
[9] = system: Escherichia coli; assay: Compound was tested for antibacterial activity against gram negative Escherichia coli NIHJ JC-2; assay type: functional
[10] = system: Enterobacter cloacae; assay: Compound was tested for antibacterial activity against gram negative Enterobacter cloacae Nek39; assay type: functional; conditions: Enterobacter cloacae; read-out: MIC
[11] = system: Klebsiella pneumoniae; assay: Compound was tested for antibacterial activity against gram negative Klebsiella pneumoniae KC-1; assay type: functional; conditions: Klebsiella pneumoniae; read-out: MIC
[12] = system: Klebsiella pneumoniae; assay: Compound was tested for antibacterial activity against gram negative Klebsiella pneumoniae No.42; assay type: functional; conditions: Klebsiella pneumoniae; read-out: MIC
[13] = system: Klebsiella oxytoca; assay: Compound was tested for antibacterial activity against gram negative Klebsiella oxytoca GN 10650; assay type: functional; conditions: Klebsiella oxytoca; read-out: MIC
[14] = system: Proteus mirabilis; assay: Compound was tested for antibacterial activity against gram negative Proteus mirabilis JY-10; assay type: functional; conditions: Proteus mirabilis; read-out: MIC
[15] = system: Proteus vulgaris; assay: Compound was tested for antibacterial activity against gram negative Proteus vulgaris KS-134; assay type: functional; conditions: Proteus vulgaris; read-out: MIC
[16] = system: Proteus vulgaris; assay: Compound was tested for antibacterial activity against gram negative Proteus vulgaris No.33; assay type: functional; conditions: Proteus vulgaris; read-out: MIC
[17] = system: Pseudomonas aeruginosa; assay: Compound was tested for antibacterial activity against gram negative Pseudomonas aeruginosa K-13; assay type: functional; conditions: Pseudomonas aeruginosa; read-out: MIC
[18] = system: Pseudomonas aeruginosa; assay: Compound was tested for antibacterial activity against gram negative Pseudomonas aeruginosa KP-254; assay type: functional; conditions: Pseudomonas aeruginosa; read-out: MIC
[19] = system: Pseudomonas aeruginosa; assay: Compound was tested for antibacterial activity against gram negative Pseudomonas aeruginosa PAO1; assay type: functional; conditions: Pseudomonas aeruginosa; read-out: MIC
[20] = system: Pseudomonas aeruginosa; assay: Compound was tested for antibacterial activity against gram negative Pseudomonas aeruginosa AK109; assay type: functional; conditions: Pseudomonas aeruginosa; read-out: MIC
[21] = system: Staphylococcus aureus; assay: Compound was tested for antibacterial activity against gram positive Staphylococcus aureus JS-1; assay type: functional
[22] = system: Staphylococcus aureus; assay: Compound was tested for antibacterial activity against gram positive Staphylococcus aureus KP-90-3; assay type: functional; conditions: Staphylococcus aureus; read-out: MIC
[23] = system: Staphylococcus aureus; assay: Compound was tested for antibacterial activity against gram positive Staphylococcus aureus smith; assay type: functional
[24] = system: Staphylococcus aureus; assay: Compound was tested for antibacterial activity against gram positive Staphylococcus aureus FDA 209P JC-1; assay type: functional; conditions: Staphylococcus aureus; read-out: MIC
[25] = system: Serratia marcescens; assay: Compound was tested for antibacterial activity against gram negative Serratia marcescens No.16-2; assay type: functional; conditions: Serratia marcescens; read-out: MIC
[26] = system: Streptococcus pyogenes; assay: Compound was tested for antibacterial activity against gram positive Streptococcus pyogenes cook; conditions: Streptococcus pyogenes; read-out: MIC
[27] = Escherichia coli, read-out: MIC
[28] = Staphylococcus aureus, read-out: MIC

Row | Compound | MIC [1] [µg/mL] | MIC [2] [µg/mL] | MIC [3] [µg/mL] | MIC [4] [µg/mL] | MIC [5] [µg/mL] | MIC [6] [µg/mL] | MIC [7] [µg/mL] | MIC [8] [µg/mL] | MIC [10] [µg/mL] | MIC [11] [µg/mL] | MIC [12] [µg/mL] | MIC [13] [µg/mL] | MIC [14] [µg/mL] | MIC [15] [µg/mL] | MIC [16] [µg/mL] | MIC [17] [µg/mL] | MIC [18] [µg/mL] | MIC [19] [µg/mL] | MIC [20] [µg/mL] | MIC [22] [µg/mL] | other results
1 | CC1COc2c(N3CCN(C)CC3)c(F)cc3c(=O)c(C(=O)O)cn1c23 (stereo unspecified) [OFLOXACIN] | 0.78 (≈ 2.16 µM) | 3.13 (≈ 8.66 µM) | 50 (≈ 138 µM) | 0.39 (≈ 1.08 µM) | 1.56 (≈ 4.32 µM) | 0.78 (≈ 2.16 µM) | 0.78 (≈ 2.16 µM) | 0.025 (≈ 0.0692 µM) | 0.39 (≈ 1.08 µM) | 0.05 (≈ 0.138 µM) | 0.2 (≈ 0.553 µM) | 0.1 (≈ 0.277 µM) | 0.05 (≈ 0.138 µM) | 50 (≈ 138 µM) | 0.05 (≈ 0.138 µM) | 12.5 (≈ 34.6 µM) | > 100 | 1.56 (≈ 4.32 µM) | 1.56 (≈ 4.32 µM) | 25 (≈ 69.2 µM) | MIC [9, 27]: 0.1 µg/mL (≈ 0.277 µM); MIC [21, 28]: 0.39 µg/mL (≈ 1.08 µM); MIC [23]: 0.2 µg/mL (≈ 0.553 µM); MIC [24]: 0.39 µg/mL (≈ 1.08 µM); MIC [25]: 0.78 µg/mL (≈ 2.16 µM); MIC [26]: 0.78 µg/mL (≈ 2.16 µM)
2 | COc1c(N2C[C@@H](CN)[C@H](C(F)(F)F)C2)c(F)cc2c(=O)c(C(=O)O)cn(C3CC3)c12.Cl (racemic) | 0.1 | 1.56 | 25 | 0.78 | 0.05 | 0.78 | 0.78 | 0.05 | 0.39 | 0.05 | 0.2 | 0.1 | 0.1 | 50 | 0.1 | 12.5 | 100 | 1.56 | 1.56 | 0.39 | MIC [9]: 0.1 µg/mL; MIC [21]: 0.013 µg/mL; MIC [23]: ≤ 0.006 µg/mL; MIC [24]: 0.025 µg/mL; MIC [25]: 0.39 µg/mL; MIC [26]: 0.025 µg/mL

Further compounds by falling MIC [1], results first:

Row | MIC [1] [µg/mL] | MIC [2] [µg/mL] | MIC [3] [µg/mL] | MIC [4] [µg/mL] | MIC [5] [µg/mL] | MIC [6] [µg/mL] | MIC [7] [µg/mL] | MIC [8] [µg/mL] | MIC [10] [µg/mL] | MIC [11] [µg/mL] | MIC [12] [µg/mL] | MIC [13] [µg/mL] | MIC [14] [µg/mL] | MIC [15] [µg/mL] | MIC [16] [µg/mL] | MIC [17] [µg/mL] | MIC [18] [µg/mL] | MIC [19] [µg/mL] | MIC [20] [µg/mL] | MIC [22] [µg/mL] | Compound | other results
3 | 1.56 | 3.13 | > 12.5 | > 12.5 | 0.78 | > 12.5 | > 12.5 | 0.05 | 12.5 | 1.56 | 6.25 | 6.25 | 0.78 | > 12.5 | 3.13 | > 12.5 | > 12.5 | > 12.5 | > 12.5 | 6.25 | COc1c(N2CC[C@@](CN)(C(F)(F)F)C2)c(F)cc2c(=O)c(C(=O)O)cn(C3CC3)c12.Cl | MIC [9, 27]: 3.13 µg/mL; MIC [21, 28]: 0.1 µg/mL; MIC [23]: 0.05 µg/mL; MIC [24]: 0.2 µg/mL; MIC [25]: > 12.5 µg/mL; MIC [26]: 0.78 µg/mL
4 | 0.78 (≈ 1.76 µM) | 3.13 (≈ 7.04 µM) | > 100 | 12.5 (≈ 28.1 µM) | 0.2 (≈ 0.45 µM) | 6.25 (≈ 14.1 µM) | 6.25 (≈ 14.1 µM) | 0.2 (≈ 0.45 µM) | 3.13 (≈ 7.04 µM) | 1.56 (≈ 3.51 µM) | 3.13 (≈ 7.04 µM) | 1.56 (≈ 3.51 µM) | 0.2 (≈ 0.45 µM) | 100 (≈ 225 µM) | 0.78 (≈ 1.76 µM) | 25 (≈ 56.3 µM) | > 100 | 3.13 (≈ 7.04 µM) | 6.25 (≈ 14.1 µM) | 0.78 (≈ 1.76 µM) | COc1c(N2C[C@@H](CO)[C@H](C(F)(F)F)C2)c(F)cc2c(=O)c(C(=O)O)cn(C3CC3)c12 | MIC [9, 27]: 0.39 µg/mL (≈ 0.878 µM); MIC [21, 28]: 0.013 µg/mL (≈ 0.0293 µM); MIC [23]: ≤ 0.006 µg/mL; MIC [24]: 0.025 µg/mL (≈ 0.0563 µM); MIC [25]: 6.25 µg/mL (≈ 14.1 µM); MIC [26]: 0.2 µg/mL (≈ 0.45 µM)
5 | 0.2 | 1.56 | 100 | 3.13 | 0.39 | 3.13 | 3.13 | 0.05 | 3.13 | 0.39 | 0.39 | 0.39 | 0.2 | 100 | 0.39 | 25 | > 100 | 3.13 | 6.25 | 3.13 | COc1c(N2C[C@@H](N)[C@H](C(F)(F)F)C2)c(F)cc2c(=O)c(C(=O)O)cn(C3CC3)c12.O=C(O)C(F)(F)F | MIC [9, 27]: 0.39 µg/mL; MIC [21, 28]: 0.05 µg/mL; MIC [23]: 0.05 µg/mL; MIC [24]: 0.1 µg/mL; MIC [25]: 3.13 µg/mL; MIC [26]: 0.39 µg/mL
6 | 0.1 | 1.56 | 6.25 | 0.78 | 0.05 | 0.2 | 0.2 | 0.025 | 0.39 | 0.05 | 0.1 | 0.05 | 0.025 | 25 | 0.05 | 3.13 | 50 | 0.78 | 0.78 | 0.2 | COc1c(N2C[C@H](CN)[C@H](C(F)(F)F)C2)c(F)cc2c(=O)c(C(=O)O)cn(C3CC3)c12.Cl | MIC [9, 27]: 0.05 µg/mL; MIC [21, 28]: ≤ 0.006 µg/mL; MIC [23]: ≤ 0.006 µg/mL; MIC [24]: 0.025 µg/mL; MIC [25]: 0.78 µg/mL; MIC [26]: ≤ 0.006 µg/mL
